Reference: publication PMC9215129, “An acetyltransferase controls the metabolic flux in rubromycin polyketide biosynthesis by direct modulation of redox tailoring enzymes” (Chemical Science, 2022)

Legend:
GrhO6 [1] = molecular target: T1, GrhO6 (Streptomyces sp. JP95, UniProt Q8KSX5); assay: HPLC time course in cascade; assay type: biochemical; settings: NADPH, GrhO5, GrhO1, with HyalJ; 4a generated in situ from 3b
T1 construct: recombinant, purified; group A FAD monooxygenase; acetylated at K5 by HyalJ in some assays
T1 sequence (Q8KSX5 1-520): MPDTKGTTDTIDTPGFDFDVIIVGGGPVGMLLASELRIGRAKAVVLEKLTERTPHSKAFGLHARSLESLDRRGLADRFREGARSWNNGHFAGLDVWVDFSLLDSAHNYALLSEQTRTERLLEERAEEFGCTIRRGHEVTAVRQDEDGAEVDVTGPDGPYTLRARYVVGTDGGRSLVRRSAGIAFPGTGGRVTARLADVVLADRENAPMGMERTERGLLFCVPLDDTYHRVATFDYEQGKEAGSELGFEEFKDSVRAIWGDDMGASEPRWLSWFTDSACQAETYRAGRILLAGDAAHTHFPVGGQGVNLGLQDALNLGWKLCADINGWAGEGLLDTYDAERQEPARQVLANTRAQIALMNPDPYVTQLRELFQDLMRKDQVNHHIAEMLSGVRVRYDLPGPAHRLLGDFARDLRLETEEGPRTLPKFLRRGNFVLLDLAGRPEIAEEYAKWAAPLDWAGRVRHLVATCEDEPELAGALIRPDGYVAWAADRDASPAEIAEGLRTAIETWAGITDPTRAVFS

GrhO6 [2] = molecular target: T2, GrhO6 (Streptomyces sp. JP95, UniProt Q8KSX5, K425M); assay: HPLC assay, 5a/5b formation; assay type: biochemical; settings: with HyalJ; activity similar to wild type; substrate not named explicitly for the variant
T2 construct: recombinant, purified; group A FAD monooxygenase; acetylated at K5 by HyalJ in some assays
T2 sequence (Q8KSX5 entry or part of it K425M): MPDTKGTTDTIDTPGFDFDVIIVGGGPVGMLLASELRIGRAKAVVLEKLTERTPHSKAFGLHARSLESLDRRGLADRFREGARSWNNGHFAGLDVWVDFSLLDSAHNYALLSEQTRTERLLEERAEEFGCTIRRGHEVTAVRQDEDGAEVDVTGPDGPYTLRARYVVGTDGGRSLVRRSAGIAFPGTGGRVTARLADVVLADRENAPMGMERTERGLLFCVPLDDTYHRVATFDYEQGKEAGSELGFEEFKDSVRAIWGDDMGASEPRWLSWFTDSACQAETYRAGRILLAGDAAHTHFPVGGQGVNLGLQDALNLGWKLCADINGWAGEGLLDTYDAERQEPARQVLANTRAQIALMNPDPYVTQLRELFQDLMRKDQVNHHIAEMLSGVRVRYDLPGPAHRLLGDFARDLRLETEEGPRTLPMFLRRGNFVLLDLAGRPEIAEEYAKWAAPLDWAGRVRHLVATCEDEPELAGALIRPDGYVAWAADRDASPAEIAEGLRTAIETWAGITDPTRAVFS

GrhO10 [3] = molecular target: T3, GrhO10 (Streptomyces sp. JP95, UniProt Q8KSW1); assay: HPLC, UPLC-HRMS/MS of product […]; assay type: biochemical; settings: 4a/4b generated in situ by cascade (GrhO5, GrhO1, NADPH); redox form not resolved; low turnover
T3 construct: recombinant from E. coli, Ni-NTA purified (His-tag)
T3 sequence (Q8KSW1 1-249): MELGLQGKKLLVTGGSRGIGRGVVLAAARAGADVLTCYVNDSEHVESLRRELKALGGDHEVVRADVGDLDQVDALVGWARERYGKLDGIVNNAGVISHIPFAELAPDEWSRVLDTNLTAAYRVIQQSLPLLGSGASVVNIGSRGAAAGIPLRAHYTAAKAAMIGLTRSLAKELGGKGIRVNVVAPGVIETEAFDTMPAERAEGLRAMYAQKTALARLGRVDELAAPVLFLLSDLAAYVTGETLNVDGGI

GrhO6 [4] = molecular target: T4, GrhO6 (Streptomyces sp. JP95, UniProt Q8KSX5, K57M); assay: HPLC assay, 5a/5b formation; assay type: biochemical; settings: with HyalJ; activity similar to wild type; substrate not named explicitly for the variant
T4 construct: recombinant, purified; group A FAD monooxygenase; acetylated at K5 by HyalJ in some assays
T4 sequence (Q8KSX5 entry or part of it K57M): as the sequence (Q8KSX5 entry or part of it K425M) above, with K57M, M425K counted along it

GrhO6 [5] = molecular target: T1, GrhO6; assay: turnover before digest and UPLC-HRMS; assay type: biochemical; settings: with AcCoA and HyalJ
HyalO10 = molecular target: T5, HyalO10 (Streptomyces hyaluromycini, UniProt Z9NP16K308); assay: HPLC coupled cascade assay, 6a/6b formation; assay type: biochemical; settings: 5a/5b generated in situ (GrhO5, GrhO1, GrhO6, HyalJ, NADPH); redox form not resolved
T5 construct: heterologously produced and purified; hyaluromycin gene cluster, homologue of GrhO10
T5 sequence (Z9NP16K308 1-249): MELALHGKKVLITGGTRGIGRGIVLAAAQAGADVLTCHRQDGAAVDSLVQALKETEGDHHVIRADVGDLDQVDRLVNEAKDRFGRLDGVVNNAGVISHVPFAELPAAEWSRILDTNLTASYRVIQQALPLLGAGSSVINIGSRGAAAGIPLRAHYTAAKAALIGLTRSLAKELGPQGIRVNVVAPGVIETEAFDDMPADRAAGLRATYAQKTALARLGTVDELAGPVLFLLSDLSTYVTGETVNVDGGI

GrhO10 [6] = molecular target: T3, GrhO10; assay: HPLC time course of 6b formation; assay type: biochemical; settings: isolated 5b
HyalJ = molecular target: T6, HyalJ (Streptomyces hyaluromycini, UniProt Z9LXF2D8B5); assay: co-purification from E. coli, UPLC-HRMS of released ligand; assay type: binding; settings: acyl donor
T6 construct: recombinant from E. coli, N-terminal GB1 solubility tag; GNAT, homologue of GrhJ
T6 sequence (Z9LXF2D8B5 1-325): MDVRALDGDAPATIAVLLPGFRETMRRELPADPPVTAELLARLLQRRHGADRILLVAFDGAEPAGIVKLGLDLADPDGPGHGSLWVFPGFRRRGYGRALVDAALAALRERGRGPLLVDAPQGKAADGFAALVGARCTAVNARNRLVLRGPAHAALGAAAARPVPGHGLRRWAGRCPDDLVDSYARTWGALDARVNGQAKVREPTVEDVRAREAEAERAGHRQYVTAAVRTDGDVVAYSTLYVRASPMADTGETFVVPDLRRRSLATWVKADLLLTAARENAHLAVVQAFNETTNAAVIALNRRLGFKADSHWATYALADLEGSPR

GrhO6 [7] = molecular target: T1, GrhO6; assay: HPLC enzyme assay; assay type: biochemical; settings: inhibitor of turnover of 4a(b); 8 produced in situ, its structure only inferred from MS
[8] = equal effect to AcCoA with apo HyalJ

Compound: COc1cc(O)c2c(O)c3c(c(O)c2c1O)C(=O)OC1(CCc2cc4cc(C)oc(=O)c4c(O)c2O1)C3=O (centres unmarked) [4a, dihydrolenticulone]
- HPLC time course in cascade (GrhO6 [1]): Compound 4a is then further converted into 5a/5b
- HPLC assay, 5a/5b formation (GrhO6 [2]): both were able to mediate the generation of 5a/5b in the presence of HyalJ
- HPLC, UPLC-HRMS/MS of product 8 (GrhO10 [3]): ketoreductases are also capable of catalyzing keto reduction of 4a/4b
- HPLC assay, 5a/5b formation (GrhO6 [4]): both were able to mediate the generation of 5a/5b in the presence of HyalJ

Compound: COC1=CC(=O)c2c(O)c3c(c(O)c2C1=O)C(=O)OC1(CCc2cc4cc(C)oc(=O)c4c(O)c2O1)C3=O (centres unmarked) [4b, lenticulone]
- turnover before digest and UPLC-HRMS (GrhO6 [5]): GrhO6 after turnover of 4b in the presence of AcCoA and HyalJ

Compound: COc1cc(O)c2c(O)c3c(c(O)c2c1O)OC1(CCc2cc4cc(C)oc(=O)c4c(O)c2O1)C3=O (centres unmarked) [5a, dihydro-7,8-dideoxy-6-oxo-griseorhodin C]
- HPLC coupled cascade assay, 6a/6b formation (HyalO10): When GrhO10 was substituted for HyalO10 in the enzymatic assays, 6a/6b was formed

Compound: COC1=CC(=O)c2c(O)c3c(c(O)c2C1=O)OC1(CCc2cc4cc(C)oc(=O)c4c(O)c2O1)C3=O (centres unmarked) [5b, 7,8-dideoxy-6-oxo-griseorhodin C]
- HPLC time course of 6b formation (GrhO10 [6]): the enzymatic formation of 6b was clearly observed in the presence of GrhO10

Compound: CC(=O)SCCNC(=O)CCNC(=O)[C@H](O)C(C)(C)COP(=O)(O)OP(=O)(O)OC[C@H]1O[C@@H](n2cnc3c(N)ncnc32)[C@H](O)[C@@H]1OP(=O)(O)O [acetyl-CoA]
- co-purification from E. coli, UPLC-HRMS of released ligand (HyalJ; acetylates GrhO6 at K5, restores activity of apo HyalJ): which clearly confirmed the presence of AcCoA

Compound: COc1cc(O)c2c(O)c3c(c(O)c2c1O)C(=O)OC1(CCc2cc4cc(C)oc(=O)c4c(O)c2O1)C3O (centres unmarked) [compound 8, 8]
- HPLC enzyme assay (GrhO6 [7]): GrhO6 showed strongly decreased activity on 4a(b) even in the presence of only small amounts

Compound: CC(C(=O)O)C(=O)SCCNC(=O)CCNC(=O)[C@H](O)C(C)(C)COP(=O)(O)OP(=O)(O)OC[C@H]1O[C@@H](n2cnc3c(N)ncnc32)[C@H](O)[C@@H]1OP(=O)(O)O (some centres unmarked) [methylmalonyl-CoA]
- co-purification from E. coli, UPLC-HRMS of released ligand (HyalJ; [8]): also with almost identical amounts of propionyl-CoA and methylmalonyl-CoA

Compound: CCC(=O)SCCNC(=O)CCNC(=O)[C@H](O)C(C)(C)COP(=O)(O)OP(=O)(O)OC[C@H]1O[C@@H](n2cnc3c(N)ncnc32)[C@H](O)[C@@H]1OP(=O)(O)O [propionyl-CoA]
- co-purification from E. coli, UPLC-HRMS of released ligand (HyalJ; [8]): also with almost identical amounts of propionyl-CoA and methylmalonyl-CoA
